From patent US8178077B2, “Drug development target protein and target gene, and method of screening” (Reverse Proteomics Research Institute Co., Ltd., priority 2004, dated 2012) come the findings set out here.

This experiment addresses T1, FLJ39196 clone-derived protein (human neurocalcin δ) (Homo sapiens, UniProt P61601).
T1 construct: A human full-length cDNA clone was expressed as a protein with an N-terminal His tag; His tag (N); made in house; host or cells: Escherichia coli BL21star(DE3)pLysS (pDEST17 Gateway expression plasmid)
The experiment is described as follows: SEC/MS interaction analysis (size exclusion spin column and mass analysis) with FLJ39196 clone-derived protein. Type of experiment: binding. The text has this:
To analyze the interactions between commonly used drugs and proteins expressed from human full-length cDNA clones while keeping both the proteins and the compounds in non-modified, non-immobilized state, size exclusion chromatography (SEC) and mass analysis were used in combination (FIGS. 1, 2). The specific procedures are shown below.
The compound-protein mixture prepared in step 1 was subjected to chromatography using an SEC column, the compound and the protein were separated by SEC, and the compound that interacted with the bound compound or protein contained in the protein fraction was analyzed using a mass analyzer.
Protein concentrations were measured using BCA Protein Assay (PIERCE), in consideration of the purity calculated by SDS-PAGE.
Mass analysis was performed using LCQ DECA XP (Thermoelectron) or Q-TOFmicro (Micromass), equipped with an ESI probe. The LC pump used was Agilent 1100 (Yokogawa Analytical Systems), and the autosampler used was HTC-PAL (CTC Analytics) equipped with a cooling stacker.
In the SEC method using 384-well spin columns, Unifilter 100 (Whatman), packed with 10 μL (dry volume) of Bio-Gel P6 (BIO-RAD) and swollen with milliQ water, was used as the SEC column. 13.3 μL of a protein-free reference standard or a 25 μM protein standard and 0.7 μL of a multiplied liquid comprising 25 μM of each pharmaceutical compound (5% DMSO aqueous solution) were mixed; 9 μL of this mixture was aliquoted into the SEC spin columns. The SEC spin column was mounted on an acetonitrile-aliquoted 384-well U-bottom plate and centrifuged; the SEC spin column filtrate, which is a protein fraction, was retrieved in 50% acetonitrile. The protein precipitate produced by the acetonitrile was removed via centrifugation and filtration for deproteinization; the resulting filtrate was concentrated by centrifugation and re-dissolved in 10 μL of 50% methanol to obtain a mass analysis sample. The mobile phase supplied to the mass analyzer was 0.1% formic acid/50% methanol solution in the positive ion mode, and 0.1% ammonia/50% methanol solution in the negative ion mode; these mobile phases were used at a flow rate of 40 μL/min. 2-μL of mass analysis samples were injected using an autosampler at 2-minute intervals; the mass spectral intensity of the compound was measured to obtain the spectral intensity of the pharmaceutical compound contained in the SEC spin column filtrate (protein fraction eluted from SEC).
Background: Size exclusion chromatography separates by hydrodynamic size, large species first.

[1] abbreviates: protein 0 μM (protein-free reference), compound 1 μM.
The mark [2] stands for this setting: protein 0 μM (protein-free reference), compound 10 μM.
Where [3] appears, read: protein 0 μM (protein-free reference), compound 100 μM.
Setting [4] is: protein 0 μM (protein-free reference), compound 250 μM.
Setting [5] is: protein 23.75 μM, compound 1 μM.
The mark [6] stands for this setting: protein 23.75 μM, compound 10 μM.
Where [7] appears, read: protein 23.75 μM, compound 100 μM.
[8] abbreviates: protein 23.75 μM, compound 250 μM.
[9] abbreviates: protein 47.5 μM, compound 10 μM.
Where [10] appears, read: protein 47.5 μM, compound 100 μM.
Setting [11] is: protein 47.5 μM, compound 250 μM.

Structures can show the parent of a compound that is named as a salt.

For the compound `CCc1cc2c(s1)N(C)C(=O)CN=C2c1ccccc1Cl` [clotiazepam], the “spectral intensity of the compound in the SEC spin column filtrate (protein fraction)” value (from here on “spectral intensity … (protein fraction)”) is on record as 8089543 under setting [1]; 19826757 under setting [2]; 251469420 under setting [3]; 633414607 under setting [4]; 8254340 under setting [5]; 25038949 under setting [6]. For the same compound, the “spectral intensity … (protein fraction)” value by setting is: under setting [7], 283452799; under setting [8], 759706893; (protein 47.5 μM, compound 1 μM) 9022620; under setting [9], 60448900; under setting [10], 657940514; under setting [11], 1089985810.
For the compound `CC(C)COCC(CN(Cc1ccccc1)c1ccccc1)N1CCCC1` (stereo not drawn) [Bepridil], the “spectral intensity … (protein fraction)” value was found to be 9581826 under setting [1]; 14048756 under setting [2]; 358168208 under setting [3]; 1566782176 under setting [4]; 7408112 under setting [5]; 35655439 under setting [6]. Besides, the “spectral intensity … (protein fraction)” value is, setting by setting: under setting [7], 771184721; under setting [8], 1841002486; (protein 47.5 μM, compound 1 μM) 7866658; under setting [9], 40680909; under setting [10], 1156825217; under setting [11], 1990085657.
Consider `CCCCCCCCNC(C)C(O)c1ccc(SC(C)C)cc1` (stereo not drawn) [Suloctidil], for which the “spectral intensity … (protein fraction)” value under setting [1] was 6080126; the “spectral intensity … (protein fraction)” value under setting [2] came out at 3684060; the “spectral intensity … (protein fraction)” value under setting [3] stood at 4969067; the “spectral intensity … (protein fraction)” value under setting [4] turned out to be 9177432; the “spectral intensity … (protein fraction)” value under setting [5] is recorded as 4318261; the “spectral intensity … (protein fraction)” value under setting [6] worked out at 7828150. Further, the “spectral intensity … (protein fraction)” value reads like this: under setting [7], 163940015; under setting [8], 357100809; (protein 47.5 μM, compound 1 μM) 5977944; under setting [9], 7209043; under setting [10], 507388292; under setting [11], 742015343.
`Clc1ccc(C(OCCN2CCCCC2)c2ccccc2)cc1` (stereo not drawn) [chloperastine]: the “spectral intensity … (protein fraction)” value is recorded as 2920008 under setting [1]; 13165487 under setting [2]; 276180260 under setting [3]; 803023959 under setting [4]; 2972794 under setting [5]; 9288224 under setting [6]. Further, the “spectral intensity … (protein fraction)” value is, setting by setting: under setting [7], 218420294; under setting [8], 773924506; (protein 47.5 μM, compound 1 μM) 4085344; under setting [9], 18612563; under setting [10], 338617522; under setting [11], 1411536255.
As for `NS(=O)(=O)c1cc2c(cc1Cl)N=C(CSCc1ccccc1)NS2(=O)=O` [Benzthiazide], the “spectral intensity … (protein fraction)” value worked out at 271261 under setting [1]; 505597 under setting [2]; 1323031 under setting [3]; 1475428 under setting [4]; 361168 under setting [5]; 1095223 under setting [6]. Besides, the “spectral intensity … (protein fraction)” value under setting [7] is reported as 9348303; the “spectral intensity … (protein fraction)” value under setting [8] is 25333199; the “spectral intensity … (protein fraction)” value (protein 47.5 μM, compound 1 μM) was determined as 249695; the “spectral intensity … (protein fraction)” value under setting [9] is on record as 1261413; the “spectral intensity … (protein fraction)” value under setting [10] came to 16067473; the “spectral intensity … (protein fraction)” value under setting [11] worked out at 28434802.
On to `O=C(c1ccc(OCCN2CCCCC2)cc1)c1c(-c2ccc(O)cc2)sc2cc(O)ccc12` [Raloxifene hydrochloride], for which the “spectral intensity … (protein fraction)” value under setting [1] was 3754698; the “spectral intensity … (protein fraction)” value under setting [2] was found to be 2330594; the “spectral intensity … (protein fraction)” value under setting [3] is 7909682; the “spectral intensity … (protein fraction)” value under setting [4] was found to be 10553153; the “spectral intensity … (protein fraction)” value under setting [5] is 3790373; the “spectral intensity … (protein fraction)” value under setting [6] was found to be 6024709. Besides, the “spectral intensity … (protein fraction)” value is, setting by setting: under setting [7], 124641622; under setting [8], 157539770; (protein 47.5 μM, compound 1 μM) 3014448; under setting [9], 17385466; under setting [10], 122918120; under setting [11], 666932700.
As for `CC(C)/N=c1\cc2n(-c3ccc(Cl)cc3)c3ccccc3nc-2cc1Nc1ccc(Cl)cc1` [clofazimine], the “spectral intensity … (protein fraction)” value under setting [1] amounted to 1592610; the “spectral intensity … (protein fraction)” value under setting [2] is reported as 3306068; the “spectral intensity … (protein fraction)” value under setting [3] worked out at 1781607; the “spectral intensity … (protein fraction)” value under setting [4] is given as 1742291; the “spectral intensity … (protein fraction)” value under setting [5] stood at 2041846; the “spectral intensity … (protein fraction)” value under setting [6] was determined as 15886830. Also, the “spectral intensity … (protein fraction)” value is, setting by setting: under setting [7], 138678443; under setting [8], 380425425; (protein 47.5 μM, compound 1 μM) 2399851; under setting [9], 57730302; under setting [10], 312686548; under setting [11], 411373516.
